In ChEMBL document CHEMBL1201862, “PubChem BioAssay data set” (2004):
Values belong to the compound of their own block, whether it stands above or below them. Active and inactive are the calls of the source.

Columns and labels:
[1] = target: Mitogen-activated protein kinase 10 (Homo sapiens, UniProt P53779); experiment: Dose response biochemical screening assay for inhibitors of c-Jun N-Terminal Kinase 3 (JNK3). [Related pubchem assays: 746 ]
[2] = target: RNA-editing ligase 1, mitochondrial (Trypanosoma brucei brucei, UniProt P86926); experiment: inhibition of trypanosome RNA editing ligase – biochemical, fluorescence, Trypanosoma brucei, dose response (AID 1117295); format: functional
[3] = target: Paired box protein Pax-8 (Homo sapiens, UniProt Q06710); experiment: PAX8 transcriptional activity inhibition in RMG-I – RMG-I cells, luciferase, cherry-pick, dose response (AID 687027); format: functional, cell-based;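 also: luciferase reporter driven by Pax8 target thyroperoxidase promoter measured by SteadyGlo luminescence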
Chain of Paired box protein Pax-8 (Q06710 whole entry): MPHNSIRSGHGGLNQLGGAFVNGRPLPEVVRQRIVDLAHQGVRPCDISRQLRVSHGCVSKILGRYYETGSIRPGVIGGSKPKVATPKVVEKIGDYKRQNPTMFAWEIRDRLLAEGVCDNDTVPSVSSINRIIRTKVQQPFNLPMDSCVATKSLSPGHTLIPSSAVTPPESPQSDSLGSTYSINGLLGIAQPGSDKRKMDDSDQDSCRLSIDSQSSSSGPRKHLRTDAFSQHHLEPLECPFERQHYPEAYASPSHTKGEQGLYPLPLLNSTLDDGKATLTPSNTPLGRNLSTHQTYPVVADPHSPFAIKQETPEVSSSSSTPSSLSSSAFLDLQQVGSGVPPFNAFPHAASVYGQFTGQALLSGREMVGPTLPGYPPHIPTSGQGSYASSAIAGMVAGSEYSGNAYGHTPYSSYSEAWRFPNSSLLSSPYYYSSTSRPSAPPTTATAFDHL

[4] = inhibitors acting on PAX2 in cells – cell-based, plate reader, dry powder samples, selectivity assay for PAX8 inhibitor project, dose response (AID 743048); format: functional;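 also: HEK293 cells carrying a WT1 promoter luciferase reporter driven by expressed Pax2; potency is for inhibition of Pax2 driven reporter signal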
[5] = COV362 cell viability loss – plate reader, dry powder, SA12, cytotoxicity control for PAX8 inhibitor project, dose response (AID 743144); format: functional, cell-based
[6] = PAX5 cellular inhibition readout – cell-based, plate reader, dry powder samples, selectivity assay for PAX8 inhibitor project, dose response (AID 743047); format: functional;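 also: HEK293 cells carrying a Pax5 driven CD19 promoter luciferase reporter; potency of inhibitors that lower reporter luminescence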
[7] = OVCAR4 cell viability loss – plate reader, dry powder, SA11, cytotoxicity control for PAX8 inhibitor project, dose response (AID 743150); format: functional, cell-based; conditions: OVCAR-4
[8] = COV434 cell viability loss – plate reader, dry powder, SA7, cytotoxicity control for PAX8 inhibitor project, dose response (AID 743145); format: functional, cell-based
[9] = PAX8-dependent cell viability loss – plate reader, dry powder, dose response (AID 743049); format: functional, cell-based
[10] = growth inhibition of yeast DHODH-expressing 3D7 parasites – SYBR Green, dry powder samples, dose response (AID 1159570); format: functional, cell-based;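 also: parasite growth measured after 72 hours of compound exposure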
[11] = P. falciparum Dd2 growth inhibitors, dose response, SYBR Green, cherry-picked samples (AID 1159567); format: functional, cell-based
[12] = Dd2 malaria parasite growth inhibition potency – SYBR Green, dry powder samples, dose response (AID 1159566); format: functional, cell-based;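 also: potency for growth inhibition with lower SYBR green DNA signal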
[13] = growth inhibition of PfATP4-mutant resistant parasites – NITD609-resistant line, SYBR Green, dry powder, dose response (AID 1159571); format: functional, cell-based;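 also: parasites synchronized at ring stage by sorbitol before testing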
[14] = target: Kallikrein-7 (Homo sapiens, UniProt P49862); experiment: Fluorescence Intensity-based biochemical primary high throughput dose response assay to identify activators of kallikrein-7 (K7) zymogen.
[15] = A549 cell cytotoxicity, dose response, cytotoxicity control, plate reader, cherry-pick, antagonist series (AID 743412); format: functional, cell-based
[16] = toxicity toward HepG2 liver cells – cell-based, plate reader, cherry-pick, antagonist series, cytotoxicity control, dose response (AID 743416); format: functional
[17] = blockers of bursicon-stimulated LGR2 cAMP reporter – cell-based, HEK293, CRE-luciferase reporter, cherry pick, set 2, dose response (AID 743343); format: functional;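 also: transfected cells were stimulated with diluted bursicon conditioned medium after compound addition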
[18] = blockade of melanocortin 4 receptor signaling – cell-based, plate reader, cherry pick, counter-screen for LGR2 antagonist project, dose response (AID 743444); format: functional;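 also: transfected HEK 293 cells stimulated with alpha-MSH peptide; potency of inhibitors of the alpha-MSH evoked signal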
[19] = target: Histone-lysine N-methyltransferase NSD2 (Homo sapiens, UniProt O96028); format: biochemical
Chain of Histone-lysine N-methyltransferase NSD2 (O96028 whole entry): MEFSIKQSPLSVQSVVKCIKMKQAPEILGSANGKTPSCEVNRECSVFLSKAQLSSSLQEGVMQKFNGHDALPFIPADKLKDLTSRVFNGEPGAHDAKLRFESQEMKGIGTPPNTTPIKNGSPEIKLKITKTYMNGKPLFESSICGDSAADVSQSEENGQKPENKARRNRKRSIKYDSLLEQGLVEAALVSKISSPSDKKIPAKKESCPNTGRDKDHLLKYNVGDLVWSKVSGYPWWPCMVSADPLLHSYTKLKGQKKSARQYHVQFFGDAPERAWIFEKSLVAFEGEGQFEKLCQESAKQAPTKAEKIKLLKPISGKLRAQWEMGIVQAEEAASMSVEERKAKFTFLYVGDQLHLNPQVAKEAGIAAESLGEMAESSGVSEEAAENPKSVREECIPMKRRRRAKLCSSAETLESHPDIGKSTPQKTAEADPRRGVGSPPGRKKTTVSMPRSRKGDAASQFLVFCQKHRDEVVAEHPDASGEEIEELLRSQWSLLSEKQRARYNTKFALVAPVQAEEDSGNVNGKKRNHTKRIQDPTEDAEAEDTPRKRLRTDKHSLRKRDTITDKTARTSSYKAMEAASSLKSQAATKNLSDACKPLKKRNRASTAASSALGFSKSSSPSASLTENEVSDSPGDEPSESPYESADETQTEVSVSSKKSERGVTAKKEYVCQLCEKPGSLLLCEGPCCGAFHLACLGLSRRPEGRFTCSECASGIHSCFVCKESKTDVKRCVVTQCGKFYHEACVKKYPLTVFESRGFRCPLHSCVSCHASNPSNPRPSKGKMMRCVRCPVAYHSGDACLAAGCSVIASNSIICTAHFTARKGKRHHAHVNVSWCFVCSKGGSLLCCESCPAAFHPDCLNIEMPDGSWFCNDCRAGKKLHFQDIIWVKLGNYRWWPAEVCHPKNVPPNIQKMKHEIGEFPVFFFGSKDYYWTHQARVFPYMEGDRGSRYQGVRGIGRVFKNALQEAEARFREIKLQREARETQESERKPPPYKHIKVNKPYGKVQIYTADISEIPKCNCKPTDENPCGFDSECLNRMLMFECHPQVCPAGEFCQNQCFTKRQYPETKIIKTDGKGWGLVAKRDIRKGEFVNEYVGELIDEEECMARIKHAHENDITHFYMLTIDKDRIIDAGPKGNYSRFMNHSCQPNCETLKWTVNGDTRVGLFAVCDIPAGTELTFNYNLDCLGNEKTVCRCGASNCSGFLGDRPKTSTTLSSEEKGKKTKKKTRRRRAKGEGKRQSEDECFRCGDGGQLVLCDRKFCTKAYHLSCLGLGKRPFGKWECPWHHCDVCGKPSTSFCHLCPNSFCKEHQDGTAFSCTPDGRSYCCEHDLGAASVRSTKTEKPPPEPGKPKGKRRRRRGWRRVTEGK

[20] = cells
[21] = Trypanosoma cruzi growth suppression in host cells – NIH3T3 host cells, beta-gal luminescence, confirmation (AID 2044); format: functional, cell-based;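 also: intracellular parasites grown in NIH/3T3 mouse fibroblasts as host cells; luminescent beta-galactosidase reporter signal from transgenic T. cruzi replicating inside host cells; inhibitors lower the luminescence signal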
[22] = NIH3T3 cell viability loss – ATP luminescence, mouse fibroblasts, counter-screen, dose response (AID 2010); format: functional, cell-based;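 also: cells exposed to compound for about 90 hours before reading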
[23] = system: INS1; experiment: INS-1E survival protection against cytokine death – cell-based, luminescence, retest, dose response (AID 449756); format: functional; conditions: Rattus norvegicus;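 also: cell death triggered by IL-1 beta plus TNF-alpha plus IFN-gamma mixture; protective hits raise ATP signal compared with cytokine alone wells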
[24] = viability inhibitors of stage V gametocytes – luminescence, dose response (AID 1117278); format: functional, cell-based;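 also: gametocytes exposed to compound for 24 hours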
[25] = viability loss in human Jurkat cells – cell-based, luminescence, cytotoxicity control for P. falciparum gametocyte viability project, dose response (AID 1117277); format: functional;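 also: potency reflects loss of cellular ATP meaning fewer viable cells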
[26] = cells; remark: listed apart in the source
[27] = T. cruzi growth inhibition in host cells, dose response, cell-based, plate reader, dry powder, set 2 (AID 652275); format: functional
[28] = target: 14-3-3 protein gamma (Homo sapiens, UniProt P61981); experiment: modulators of 14-3-3 gamma client binding – dose response (AID 711); format: functional
[29] = toxicity toward immortalized ovarian surface epithelium – cell-based, plate reader, dry powder samples, cytotoxicity control for PAX8 inhibitor project, dose response (AID 743045); format: functional
[30] = OVCAR-3 cell viability loss – plate reader, dry powder samples, PAX8 inhibitor project, dose response (AID 743044); format: functional, cell-based
[31] = IGROV1 cell killing – plate reader, dry powder samples, PAX8 inhibitor project, dose response (AID 743043); format: functional, cell-based; conditions: IGROV-1
[32] = general cell-killing toxicity readout – plate reader, dry powder samples, cytotoxicity control for PAX8 inhibitor project, dose response (AID 743021); format: functional, cell-based
[33] = OVCAR8 cell viability loss – plate reader, dry powder samples, PAX8 project, dose response (AID 743197); format: functional, cell-based; conditions: OVCAR-8
[34] = system: Vero; experiment: mammalian cell viability reduction – secondary assay, cytotoxicity control for West Nile virus antiviral project, dose response (AID 1650); format: functional; conditions: Chlorocebus sabaeus
[35] = target: T1, Zinc finger protein mex-5 (Caenorhabditis elegans, UniProt Q9XUB2); experiment: potency of MEX-5 RNA-binding blockers – biochemical, C. elegans, fluorescence polarization, dose response (AID 1960)
T1 sequence (Q9XUB2 whole entry): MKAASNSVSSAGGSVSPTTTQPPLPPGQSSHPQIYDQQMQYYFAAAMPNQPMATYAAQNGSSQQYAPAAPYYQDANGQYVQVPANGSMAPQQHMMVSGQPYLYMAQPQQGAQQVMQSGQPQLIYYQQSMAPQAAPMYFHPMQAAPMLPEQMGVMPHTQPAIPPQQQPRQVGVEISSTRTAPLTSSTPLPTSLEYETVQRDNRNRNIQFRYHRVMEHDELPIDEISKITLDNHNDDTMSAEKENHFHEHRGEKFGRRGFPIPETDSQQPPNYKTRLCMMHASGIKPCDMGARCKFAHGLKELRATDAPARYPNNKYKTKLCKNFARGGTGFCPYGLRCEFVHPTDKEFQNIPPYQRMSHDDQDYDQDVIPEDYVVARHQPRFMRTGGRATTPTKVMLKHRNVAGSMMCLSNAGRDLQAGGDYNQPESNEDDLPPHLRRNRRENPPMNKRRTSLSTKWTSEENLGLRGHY

[36] = target: T2, Voltage-gated N-type calcium channel alpha-1B subunit/Amyloid beta A4 precursor protein-binding family A member 1 (Homo sapiens, UniProt Q00975+Q02410); format: protein assay
T2 sequence (Q00975 whole entry): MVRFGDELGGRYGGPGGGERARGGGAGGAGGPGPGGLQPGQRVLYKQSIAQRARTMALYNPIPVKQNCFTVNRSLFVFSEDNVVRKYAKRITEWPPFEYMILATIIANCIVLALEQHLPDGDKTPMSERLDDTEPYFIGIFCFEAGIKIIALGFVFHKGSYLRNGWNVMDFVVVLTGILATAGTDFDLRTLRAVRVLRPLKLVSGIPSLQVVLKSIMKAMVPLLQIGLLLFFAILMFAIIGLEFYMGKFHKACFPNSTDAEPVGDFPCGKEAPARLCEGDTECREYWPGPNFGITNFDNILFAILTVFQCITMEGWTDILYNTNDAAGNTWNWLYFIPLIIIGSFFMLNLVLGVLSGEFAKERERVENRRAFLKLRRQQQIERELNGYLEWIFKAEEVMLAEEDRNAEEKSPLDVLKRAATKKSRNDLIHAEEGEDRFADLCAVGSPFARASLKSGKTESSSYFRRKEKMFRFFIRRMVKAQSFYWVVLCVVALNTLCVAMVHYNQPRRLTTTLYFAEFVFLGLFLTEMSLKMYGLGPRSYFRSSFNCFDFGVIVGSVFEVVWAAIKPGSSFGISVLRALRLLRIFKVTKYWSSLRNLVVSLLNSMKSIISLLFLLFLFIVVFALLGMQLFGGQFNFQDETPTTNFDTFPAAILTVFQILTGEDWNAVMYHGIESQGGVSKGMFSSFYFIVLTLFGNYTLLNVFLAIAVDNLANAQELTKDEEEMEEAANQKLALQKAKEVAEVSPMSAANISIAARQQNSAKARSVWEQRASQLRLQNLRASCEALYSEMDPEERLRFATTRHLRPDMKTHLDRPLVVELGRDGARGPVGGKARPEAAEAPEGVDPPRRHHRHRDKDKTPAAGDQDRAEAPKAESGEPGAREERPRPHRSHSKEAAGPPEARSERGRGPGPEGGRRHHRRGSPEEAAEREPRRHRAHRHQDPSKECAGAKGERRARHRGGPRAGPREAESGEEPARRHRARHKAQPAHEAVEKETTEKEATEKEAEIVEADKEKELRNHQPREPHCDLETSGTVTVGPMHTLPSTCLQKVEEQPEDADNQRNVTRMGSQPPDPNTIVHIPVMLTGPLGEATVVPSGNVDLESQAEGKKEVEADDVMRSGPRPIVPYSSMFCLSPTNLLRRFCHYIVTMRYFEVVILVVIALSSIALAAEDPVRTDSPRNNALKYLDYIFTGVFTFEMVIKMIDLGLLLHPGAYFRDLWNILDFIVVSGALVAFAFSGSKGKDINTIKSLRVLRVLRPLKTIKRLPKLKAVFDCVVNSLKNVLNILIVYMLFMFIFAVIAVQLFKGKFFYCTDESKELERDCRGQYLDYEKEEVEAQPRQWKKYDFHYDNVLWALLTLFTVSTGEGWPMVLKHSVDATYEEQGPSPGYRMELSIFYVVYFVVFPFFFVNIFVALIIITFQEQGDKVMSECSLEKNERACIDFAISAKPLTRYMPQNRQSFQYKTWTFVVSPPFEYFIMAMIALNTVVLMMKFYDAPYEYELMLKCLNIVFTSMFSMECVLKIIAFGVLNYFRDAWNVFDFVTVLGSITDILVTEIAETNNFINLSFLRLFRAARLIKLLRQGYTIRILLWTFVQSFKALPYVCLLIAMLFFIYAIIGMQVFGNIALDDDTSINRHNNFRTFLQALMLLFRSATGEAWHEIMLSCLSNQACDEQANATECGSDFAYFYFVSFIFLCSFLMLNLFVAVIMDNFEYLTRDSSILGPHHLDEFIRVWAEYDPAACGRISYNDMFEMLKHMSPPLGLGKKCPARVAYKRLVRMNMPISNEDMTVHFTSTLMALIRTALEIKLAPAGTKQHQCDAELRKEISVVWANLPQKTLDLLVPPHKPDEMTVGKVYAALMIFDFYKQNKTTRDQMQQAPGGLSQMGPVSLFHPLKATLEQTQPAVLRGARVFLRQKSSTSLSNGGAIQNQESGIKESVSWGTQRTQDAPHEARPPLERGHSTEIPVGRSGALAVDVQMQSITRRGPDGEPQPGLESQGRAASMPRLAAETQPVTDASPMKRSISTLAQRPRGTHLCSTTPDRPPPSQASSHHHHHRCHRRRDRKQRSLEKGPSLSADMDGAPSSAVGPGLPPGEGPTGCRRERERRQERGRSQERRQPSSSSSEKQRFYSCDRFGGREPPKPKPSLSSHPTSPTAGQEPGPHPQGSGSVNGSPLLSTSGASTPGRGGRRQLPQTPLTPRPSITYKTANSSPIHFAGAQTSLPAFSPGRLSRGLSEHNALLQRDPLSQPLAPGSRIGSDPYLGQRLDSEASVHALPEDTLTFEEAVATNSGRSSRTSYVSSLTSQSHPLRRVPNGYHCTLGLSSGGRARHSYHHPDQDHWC
T2 sequence (Q02410 whole entry): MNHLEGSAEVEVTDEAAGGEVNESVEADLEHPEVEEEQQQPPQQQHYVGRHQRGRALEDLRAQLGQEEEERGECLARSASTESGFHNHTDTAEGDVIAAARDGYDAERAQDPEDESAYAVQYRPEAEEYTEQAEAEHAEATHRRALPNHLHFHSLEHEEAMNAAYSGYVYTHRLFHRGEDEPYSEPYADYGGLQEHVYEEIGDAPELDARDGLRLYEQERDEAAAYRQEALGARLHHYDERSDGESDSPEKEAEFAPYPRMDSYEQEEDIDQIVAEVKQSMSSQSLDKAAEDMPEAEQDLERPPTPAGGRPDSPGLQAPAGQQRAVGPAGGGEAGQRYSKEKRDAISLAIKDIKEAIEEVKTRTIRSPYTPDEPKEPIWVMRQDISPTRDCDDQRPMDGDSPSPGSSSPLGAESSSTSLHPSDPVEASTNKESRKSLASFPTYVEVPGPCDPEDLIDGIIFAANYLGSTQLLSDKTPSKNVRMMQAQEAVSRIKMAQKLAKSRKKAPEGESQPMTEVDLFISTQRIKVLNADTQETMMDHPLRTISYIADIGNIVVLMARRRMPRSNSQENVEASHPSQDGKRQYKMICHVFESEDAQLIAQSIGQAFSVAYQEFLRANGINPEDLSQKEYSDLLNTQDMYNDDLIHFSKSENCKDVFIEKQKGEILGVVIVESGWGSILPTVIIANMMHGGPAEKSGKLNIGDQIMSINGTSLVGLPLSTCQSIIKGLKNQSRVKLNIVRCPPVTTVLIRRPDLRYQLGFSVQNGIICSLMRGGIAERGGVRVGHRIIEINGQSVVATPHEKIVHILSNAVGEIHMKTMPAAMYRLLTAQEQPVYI

[37] = target: T2, Voltage-gated N-type calcium channel alpha-1B subunit/Amyloid beta A4 precursor protein-binding family A member 1; format: protein assay; remark: listed apart in the source
[38] = target: Albumin (Bos taurus, UniProt P02769); experiment: Counterscreen for inhibitors of T-cell receptor (TCR)-CD3 interaction: Fluorescence-based biochemical high throughput dose response assay to identify inhibitors of T-cell receptor (TCR)-CD3 interaction using a TAMRA-labeled BSA probe.; format: functional

IC50 [1]: 56.2 µM (not active)
Compound: O=C1NC(=O)c2c(NC(=O)C3CCCO3)cccc21 (centres undefined)

IC50 [2]: > 96.6 µM (inactive)
Compound: Cc1ccc(C(C)C)c(OCCNCCc2ccccc2)c1

Compound: CCCC#Cc1ccc([C@H]2[C@@H](CO)N(C(=O)C3CCCCC3)[C@H]2C#N)cc1
AC50 [3]: 1.55 µM (active)
AC50 [4]: 26.7 µM (active)
AC50 [5]: 0.0864 nM (active)
AC50 [6]: 19.2 µM (active)
AC50 [7]: 22.8 µM (active)
AC50 [8]: 0.000367 µM (active)
AC50 [9]: 12.2 µM (active)
AC50 [10]: 0.996 µM (active)
AC50 [11]: 1.42 µM (active)
AC50 [12]: 0.541 µM (active)
AC50 [13]: 2.55 µM (active)

EC50 [14]: > 7.72 µM (active)
Compound: C=C(C)Cn1c2ccc(NC(=O)NCCc3cccs3)cc2c(=O)n1C

Compound: COc1ccc2nc(-c3ccccn3)ccc2c1
AC50 [15]: > 52 µM (inactive)
AC50 [16]: 29.3 µM (active)
AC50 [17]: 9.32 µM (active)
AC50 [18]: 13.4 µM (active)

AC50 [19]: 3.43 µM (active)
Compound: CCOc1ccc2[nH]c3c(NCCN(CC)CC)ncnc3c2c1

Compound: CCOC(=O)c1cc2c(=O)n3ccccc3nc2n(CCCOC)/c1=N\C(=O)c1ccncc1
AC50 [20]: 8.47 µM (active)

Compound: CCCOC(=O)c1ccc(-[n+]2c(-c3ccccc3)cc(-c3ccccc3)cc2-c2ccccc2)cc1.[O-][Cl+3]([O-])([O-])[O-]
EC50 [21]: < 0.1 µM (active)
EC50 [22]: > 60 µM (not active)
AC50 [23]: 1.82 µM (active)
IC50 [24]: > 109 µM (inactive)
IC50 [25]: 6.87 µM (active)
EC50 [26]: 0.1 µM (active)

Compound: CN(C)C(=O)c1cccc(-c2ccc([C@H]3[C@H](CO)N4CCCCN(C(=O)C5CCC5)C[C@@H]34)cc2)c1
AC50 [27]: 0.296 µM (active)

IC50 [28]: > 50 µM (not active)
Compound: CCOc1ccc2[nH]c(=O)c(CN(CC3COCCO3)C(=O)C3CC3)cc2c1 (centres undefined)

Compound: COc1cccc(S(=O)(=O)N2C[C@@H]3N[C@H](C2)[C@@H]3c2ccc(/C=C/c3ccccc3)cc2)c1
AC50 [3]: 9.43 µM (active)
AC50 [29]: 36.1 µM (active)
AC50 [30]: 40.8 µM (active)
AC50 [31]: 58 µM (active)
AC50 [32]: 33.7 µM (active)
AC50 [33]: 48.9 µM (active)

Compound: CCN(CC)CCNCC1C(=O)O[C@@H]2C[C@@]3(C)CCC[C@H](C)C3=C[C@H]12 (some centres undefined)
CC50 [34]: > 100 µM (active)

EC50 [35]: > 300 µM (not active)
IC50 [36]: 2.33 µM (active)
IC50 [37]: 19.8 µM (active)
IC50 [38]: > 94.1 µM (inactive)
Compound: COc1ccc(C(=O)Nc2nnc(CC(=O)N/N=C/c3ccc(O)cc3O)s2)cc1
